# Reference: paper PMC2796389 (PLoS ONE, 2010)
# What was measured:
# [1] = test system: Cyphoma digestive gland cytosolic GST; assay: Inhibition of CDNB-conjugating GST activity in digestive gland cytosol; assay type: biochemical, Cyphoma gibbosum; conditions: prostaglandins screened at 600 µM, 5% (v/v) DMSO, Figure 3
# [2] = test system: human mu-class GST M1a-a; parameters: method as in PMID 9084911; conditions: conversion to glutathione conjugate; read-out: Km for PGA2; cited from earlier work
# [3] = test system: rat alpha-class GST A4-4; parameters: method as in PMID 12230403; conditions: conversion to glutathione conjugate; read-out: Km for PGA2; cited from earlier work
# [4] = test system: human mu-class GST M2-2; parameters: method as in PMID 12230403; conditions: conversion to glutathione conjugate; read-out: Km for PGA2; cited from earlier work
compound,measurement,setting,value
CCCCC[C@@](C)(O)/C=C/[C@H]1C=CC(=O)[C@@H]1C/C=C\CCCC(=O)O [15(R)-15-methyl PGA2],inhibition of GST activity in comparison to solvent controls,[1],most potent inhibitors
"CCCCC[C@H](O)/C=C/[C@H]1C=CC(=O)[C@@H]1C/C=C\CCCC(=O)O [15(S)-PGA2, prostaglandin A2]",inhibition of GST activity in comparison to solvent controls,[1]; 600 µM,most potent inhibitors
same,inhibition of GST activity in comparison to solvent controls,"[1]; listed as PGA2, 600 µM",greatest inhibition
same,Km,[2],26 µM
same,Km,[3],12 µM
same,Km,[4],7.6 µM
CCCCC[C@H](O)/C=C/[C@H]1[C@H](O)CC(=O)[C@@H]1C/C=C\CCCC(=O)OC [15(S)-PGE2-methyl ester],inhibition of GST activity in comparison to solvent controls,[1],little to no inhibitory activity
CCCCC[C@H](O)/C=C/[C@@H]1[C@@H](C/C=C\CCCC(=O)OC)[C@@H](O)C[C@H]1O [15(S)-PGF2α-methyl ester],inhibition of GST activity in comparison to solvent controls,[1],little to no inhibitory activity
